ChEMBL document CHEMBL1201862, “PubChem BioAssay data set” (2004)
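Where inhibition never reached the appropriate level, the endpoint shown equals the highest concentration tested. Otherwise, values were interpolated linearly from a five-concentration, 48-hour dose response in 96-well plates. Abbreviation: GI50, concentration required for 50% inhibition of growth.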 Activity calls are given as the source filed them. Rule as the data show it: active = GI50 up to about 1.1 µM and inactive = higher.

Key:
Assay in all cases: NCI tumour cell line growth inhibition, 48 h
HT-29 = test system: HT-29
MDA-MB-435 = test system: MDA-MB-435
MDA-MB-231 = test system: MDA-MB-231
MDA-N = test system: MDA-N
LOX IMVI = test system: LOX IMVI
Hs-578T = test system: Hs-578T
SR = test system: SR
DU-145 = test system: DU-145
SK-MEL-2 = test system: SK-MEL-2
UACC-62 = test system: UACC-62
MOLT-4 = test system: MOLT-4
NCI/ADR-RES = test system: NCI/ADR-RES
A549 = test system: A549
M14 = test system: M14
SF-268 = test system: SF-268
OVCAR-4 = test system: OVCAR-4
HCC 2998 = test system: HCC 2998
MCF7 = test system: MCF7
SNB-19 = test system: SNB-19
NCI-H23 = test system: NCI-H23
HCT-116 = test system: HCT-116
786-0 = test system: 786-0
COLO 205 = test system: COLO 205
HL-60 = test system: HL-60
ACHN = test system: ACHN
SK-MEL-28 = test system: SK-MEL-28
OVCAR-5 = test system: OVCAR-5
CCRF-CEM = test system: CCRF-CEM
KM12 = test system: KM12
HOP-62 = test system: HOP-62
OVCAR-3 = test system: OVCAR-3
EKVX = test system: EKVX
NCI-H226 = test system: NCI-H226
SK-MEL-5 = test system: SK-MEL-5
SNB-75 = test system: SNB-75
K562 = test system: K562
U-251 = test system: U-251
A498 = test system: A498
NCI-H460 = test system: NCI-H460
T47D = test system: T47D
TK-10 = test system: TK-10
RPMI-8226 = test system: RPMI-8226
BT-549 = test system: BT-549
IGROV-1 = test system: IGROV-1
SF-539 = test system: SF-539
SF-295 = test system: SF-295
Malme-3M = test system: Malme-3M
SW-620 = test system: SW-620
HCT-15 = test system: HCT-15
UO-31 = test system: UO-31
OVCAR-8 = test system: OVCAR-8
PC-3 = test system: PC-3
SK-OV-3 = test system: SK-OV-3
UACC-257 = test system: UACC-257
CAKI-1 = test system: CAKI-1
SN12C = test system: SN12C
RXF 393 = test system: RXF 393
HOP-92 = test system: HOP-92
NCI-H522 = test system: NCI-H522

Measured: GI50

CCOC(=O)c1ccc(C(=O)/C(C(=O)OC(C)(C)C)=C2\CCCN2C)n1C
95.1 µM: HCT-15
inactive: HT-29 45.2 µM | MDA-MB-435 69.7 µM | MDA-MB-231 80 µM | MDA-N 58.3 µM | LOX IMVI 87.3 µM | Hs-578T > 100 µM | SR 31.6 µM | DU-145 > 100 µM | SK-MEL-2 > 100 µM | UACC-62 44.2 µM | MOLT-4 33.8 µM | NCI/ADR-RES 34.6 µM | A549 61.2 µM | M14 57.8 µM | SF-268 > 100 µM | OVCAR-4 46.6 µM | HCC 2998 > 100 µM | MCF7 55.8 µM | SNB-19 > 100 µM | NCI-H23 73.3 µM | HCT-116 48.5 µM | 786-0 > 100 µM | COLO 205 96.8 µM | HL-60 27.4 µM | ACHN 73.5 µM | SK-MEL-28 > 100 µM | OVCAR-5 > 100 µM | CCRF-CEM 72.9 µM | KM12 55.3 µM | HOP-62 95.3 µM | OVCAR-3 37.8 µM | EKVX 33.4 µM | NCI-H226 > 100 µM | SK-MEL-5 21.3 µM | SNB-75 15.9 µM | K562 42.1 µM | U-251 > 100 µM | A498 77.1 µM | NCI-H460 94.6 µM | T47D 29.2 µM | TK-10 > 100 µM | RPMI-8226 69.7 µM | BT-549 39.7 µM | IGROV-1 > 100 µM | SF-539 > 100 µM | SF-295 28.7 µM | Malme-3M > 100 µM | SW-620 > 100 µM | UO-31 90.4 µM | OVCAR-8 80.4 µM | PC-3 73.1 µM | SK-OV-3 16.6 µM | UACC-257 54 µM | CAKI-1 > 100 µM | SN12C > 100 µM | RXF 393 > 100 µM

N=C(N)NCCCC(NC(=O)OCCCCCn1ccc(N)nc1=O)C(=O)O (stereo not drawn)
inactive: HT-29 > 100 µM | MDA-MB-435 > 100 µM | HOP-92 > 100 µM | MDA-MB-231 > 100 µM | MDA-N > 100 µM | LOX IMVI > 100 µM | Hs-578T > 100 µM | SR > 100 µM | DU-145 > 100 µM | SK-MEL-2 > 100 µM | UACC-62 > 100 µM | MOLT-4 > 100 µM | NCI/ADR-RES > 100 µM | A549 > 100 µM | M14 > 100 µM | SF-268 > 100 µM | OVCAR-4 > 100 µM | HCC 2998 > 100 µM | MCF7 > 100 µM | SNB-19 > 100 µM | NCI-H23 > 100 µM | HCT-116 > 100 µM | 786-0 > 100 µM | COLO 205 > 100 µM | HL-60 > 100 µM | ACHN > 100 µM | SK-MEL-28 > 100 µM | OVCAR-5 > 100 µM | CCRF-CEM > 100 µM | KM12 > 100 µM | HOP-62 > 100 µM | OVCAR-3 > 100 µM | EKVX > 100 µM | NCI-H226 > 100 µM | SNB-75 > 100 µM | K562 > 100 µM | U-251 > 100 µM | A498 > 100 µM | NCI-H460 > 100 µM | T47D > 100 µM | TK-10 > 100 µM | RPMI-8226 > 100 µM | BT-549 > 100 µM | IGROV-1 > 100 µM | SF-539 > 100 µM | SF-295 > 100 µM | SW-620 > 100 µM | UO-31 > 100 µM | OVCAR-8 > 100 µM | PC-3 > 100 µM | SK-OV-3 > 100 µM | UACC-257 > 100 µM | CAKI-1 > 100 µM | SN12C > 100 µM | RXF 393 > 100 µM
> 100 µM: HCT-15

COc1ccc2o/c(=N\c3ccc(F)cc3)c(C(N)=O)cc2c1
inactive: HT-29 > 100 µM | MDA-MB-435 > 100 µM | HOP-92 27.4 µM | MDA-MB-231 16.3 µM | MDA-N > 100 µM | LOX IMVI > 100 µM | Hs-578T 62.1 µM | SR > 100 µM | DU-145 > 100 µM | SK-MEL-2 22.8 µM | UACC-62 35.3 µM | MOLT-4 > 100 µM | NCI/ADR-RES 30.2 µM | A549 64.3 µM | M14 > 100 µM | SF-268 43 µM | OVCAR-4 27.9 µM | HCC 2998 > 100 µM | MCF7 56.8 µM | SNB-19 38.5 µM | NCI-H23 29.3 µM | HCT-116 22.8 µM | 786-0 10.5 µM | COLO 205 > 100 µM | HL-60 > 100 µM | ACHN 30.5 µM | NCI-H522 28.9 µM | SK-MEL-28 > 100 µM | OVCAR-5 > 100 µM | CCRF-CEM > 100 µM | KM12 > 100 µM | HOP-62 29.1 µM | OVCAR-3 49.9 µM | EKVX > 100 µM | NCI-H226 36.6 µM | SK-MEL-5 > 100 µM | SNB-75 12.6 µM | K562 > 100 µM | U-251 34.7 µM | A498 20 µM | NCI-H460 > 100 µM | T47D 19.4 µM | TK-10 21.6 µM | RPMI-8226 > 100 µM | BT-549 > 100 µM | IGROV-1 79.3 µM | SF-295 33.7 µM | Malme-3M 47.1 µM | SW-620 > 100 µM | UO-31 46.8 µM | OVCAR-8 17.8 µM | PC-3 > 100 µM | SK-OV-3 17 µM | UACC-257 > 100 µM | CAKI-1 45.6 µM | SN12C 42 µM | RXF 393 12.4 µM
> 100 µM: HCT-15

O=c1[nH]c(=O)n(C2C(CO)OC(CO)C2O)cc1F (stereo not drawn)
> 100 µM: HCT-15
inactive: HT-29 > 100 µM | MDA-MB-435 > 100 µM | HOP-92 > 100 µM | MDA-MB-231 > 100 µM | MDA-N > 100 µM | LOX IMVI > 100 µM | Hs-578T > 100 µM | SR > 100 µM | DU-145 > 100 µM | SK-MEL-2 > 100 µM | UACC-62 > 100 µM | MOLT-4 > 100 µM | NCI/ADR-RES > 100 µM | A549 > 100 µM | M14 > 100 µM | SF-268 > 100 µM | OVCAR-4 > 100 µM | HCC 2998 > 100 µM | MCF7 > 100 µM | SNB-19 > 100 µM | NCI-H23 > 100 µM | HCT-116 > 100 µM | 786-0 > 100 µM | COLO 205 > 100 µM | ACHN > 100 µM | NCI-H522 > 100 µM | SK-MEL-28 > 100 µM | OVCAR-5 > 100 µM | CCRF-CEM > 100 µM | KM12 > 100 µM | HOP-62 > 100 µM | OVCAR-3 > 100 µM | EKVX > 100 µM | NCI-H226 > 100 µM | SK-MEL-5 > 100 µM | SNB-75 > 100 µM | K562 > 100 µM | U-251 > 100 µM | A498 > 100 µM | NCI-H460 > 100 µM | T47D > 100 µM | TK-10 > 100 µM | RPMI-8226 > 100 µM | BT-549 > 100 µM | IGROV-1 > 100 µM | SF-539 > 100 µM | SF-295 > 100 µM | Malme-3M > 100 µM | SW-620 > 100 µM | UO-31 > 100 µM | OVCAR-8 > 100 µM | PC-3 > 100 µM | SK-OV-3 > 100 µM | UACC-257 > 100 µM | CAKI-1 > 100 µM | SN12C > 100 µM | RXF 393 > 100 µM

Nc1ncc2c(n1)-c1ccccc1OC2NC1CC1 (stereo not drawn)
inactive: HT-29 > 100 µM | MDA-MB-435 > 100 µM | HOP-92 > 100 µM | MDA-MB-231 > 100 µM | MDA-N > 100 µM | LOX IMVI > 100 µM | Hs-578T > 100 µM | SR > 100 µM | DU-145 > 100 µM | SK-MEL-2 > 100 µM | UACC-62 > 100 µM | MOLT-4 > 100 µM | NCI/ADR-RES > 100 µM | A549 > 100 µM | M14 > 100 µM | SF-268 > 100 µM | OVCAR-4 > 100 µM | MCF7 > 100 µM | SNB-19 > 100 µM | NCI-H23 > 100 µM | HCT-116 > 100 µM | 786-0 > 100 µM | COLO 205 > 100 µM | HL-60 > 100 µM | ACHN > 100 µM | NCI-H522 > 100 µM | OVCAR-5 > 100 µM | CCRF-CEM > 100 µM | KM12 > 100 µM | OVCAR-3 > 100 µM | EKVX 97.5 µM | NCI-H226 > 100 µM | SK-MEL-5 > 100 µM | SNB-75 > 100 µM | U-251 > 100 µM | A498 > 100 µM | NCI-H460 > 100 µM | T47D > 100 µM | TK-10 > 100 µM | RPMI-8226 > 100 µM | BT-549 > 100 µM | IGROV-1 > 100 µM | SF-539 > 100 µM | SF-295 > 100 µM | SW-620 > 100 µM | UO-31 > 100 µM | OVCAR-8 > 100 µM | PC-3 > 100 µM | SK-OV-3 > 100 µM | UACC-257 > 100 µM | CAKI-1 > 100 µM | SN12C > 100 µM | RXF 393 > 100 µM
> 100 µM: HCT-15
